The text below walks through data of US9090632B2, “Bicyclic oxazole and thiazole compounds and their use as allosteric modulators of mGluR5 receptors” (Vanderbilt University, priority 2010, dated 2015).

Where only a bound is given, the exact number is not on record here.

This assay addresses human mGluR5 (Homo sapiens, UniProt P41594). In words: Cell-based functional Ca2+ mobilization assay, potentiation of glutamate EC20 response (H10H cell-line). The following applies: H10H cell-line expressing recombinant human mGluR5; for Emax / Emax (%): in presence of glutamate EC20, normalized to maximal glutamate response; for EC50 / pEC50: potentiation in presence of glutamate EC20. On the procedure:
Human embryonic kidney (HEK) cells transfected with rat mGluR5 were plated in clear bottom assay plates for assay in a Functional Drug Screening System (FDSS). In the alternative assay, HEK cells transfected with human mGluR5 were plated for assay in the FDSS. In some cases the HEK cells transfected with human mGluR5 are the H10H cell line. Alternatively, the HEK cells transfected with human mGluR5 are the H12H cell line. […] The cells were loaded with a Ca^2+-sensitive fluorescent dye (e.g., Fluo-4), and the plates were washed and placed in the FDSS instrument. After establishment of a fluorescence baseline for about three seconds, the compounds of the present invention were added to the cells, and the response in cells was measured. Five minutes later, an mGluR5 agonist (e.g., glutamate, 3,5-dihydroxyphenylglycine, or quisqualate) was added to the cells, and the response of the cells was measured. Potentiation of the agonist response of mGluR5 by the compounds in the present invention was observed as an increase in response to non-maximal concentrations of agonist (here, glutamate) in the presence of compound compared to the response to agonist in the absence of compound.
The above described assay can be operated in two modes. In the first mode, a range of concentrations of the present compounds were added to cells, followed by a single fixed concentration of agonist. If a compound acted as a potentiator, an EC50 value for potentiation and a maximum extent of potentiation by the compound at this concentration of agonist was determined by non-linear curve fitting. In the second mode, several fixed concentrations of the present compounds were added to various wells on a plate, followed by a range of concentrations of agonist for each concentration of present compound; the EC50 values for the agonist at each concentration of compound were determined by non-linear curve fitting. A decrease in the EC50 value of the agonist with increasing concentrations of the present compounds (a leftward shift of the agonist concentration-response curve) is an indication of the degree of mGluR5 potentiation at a given concentration of the present compound. An increase in the EC50 value of the agonist with increasing concentrations of the present compounds (a rightward shift of the agonist concentration-response curve) is an indication of the degree of mGluR5 antagonism at a given concentration of the present compound. The second mode also indicates whether the present compounds also affect the maximum response to mGluR5 to agonists.
Human mGluR5a cDNA in pCMV6-XL6 mammalian expression plasmid was purchased from OriGene Technologies, Inc. (catalogue number SC326357) and subcloned into pcDNA3.1(−). Human embryonic kidney (HEK) 293A cells were then transfected with human mGluR5a pcDNA3.1(−) using LipofectAmine 2000 (Invitrogen) and monoclones were selected and tested for functional response using a Ca^2+ mobilization assay. Monoclones were named for the species (“H” for human) plus the location on the plate (e.g. “10H”).
HEK cells transfected with the human mGluR5a receptor were plated at 15,000 cells/well in clear-bottomed poly-D-lysine-coated assay plates (BD Falcon) in glutamate-glutamine-free growth medium and incubated overnight at 37° C. and 5% CO2. The cell-line used to obtain the data reported herein was the H10H cell-line expressing the human mGluR5 receptor. Although the H10H cell-line was used to obtain the data shown herein, the H12H cell-line expressing the human mGluR5 receptor can also be used in these assays. The following day, the growth medium was removed and the cells were washed with assay buffer containing 1× Hank's balanced salt solution (Invitrogen, Carlsbad, Calif.), 20 mM HEPES, 2.5 mM probenecid, pH 7.4 and left with 20 μL of this reagent. Following this step, the cells were loaded with calcium indicator dye, fluo-4 AM, to a final concentration of 2 μM and incubated for 40-45 min at 37° C. […]
A general note: Calcium flux is commonly read through the fluorescence of an indicator in the cells.

human mGluR5, sequence (P41594 21-1180 isoform P41594-2 limits assumed): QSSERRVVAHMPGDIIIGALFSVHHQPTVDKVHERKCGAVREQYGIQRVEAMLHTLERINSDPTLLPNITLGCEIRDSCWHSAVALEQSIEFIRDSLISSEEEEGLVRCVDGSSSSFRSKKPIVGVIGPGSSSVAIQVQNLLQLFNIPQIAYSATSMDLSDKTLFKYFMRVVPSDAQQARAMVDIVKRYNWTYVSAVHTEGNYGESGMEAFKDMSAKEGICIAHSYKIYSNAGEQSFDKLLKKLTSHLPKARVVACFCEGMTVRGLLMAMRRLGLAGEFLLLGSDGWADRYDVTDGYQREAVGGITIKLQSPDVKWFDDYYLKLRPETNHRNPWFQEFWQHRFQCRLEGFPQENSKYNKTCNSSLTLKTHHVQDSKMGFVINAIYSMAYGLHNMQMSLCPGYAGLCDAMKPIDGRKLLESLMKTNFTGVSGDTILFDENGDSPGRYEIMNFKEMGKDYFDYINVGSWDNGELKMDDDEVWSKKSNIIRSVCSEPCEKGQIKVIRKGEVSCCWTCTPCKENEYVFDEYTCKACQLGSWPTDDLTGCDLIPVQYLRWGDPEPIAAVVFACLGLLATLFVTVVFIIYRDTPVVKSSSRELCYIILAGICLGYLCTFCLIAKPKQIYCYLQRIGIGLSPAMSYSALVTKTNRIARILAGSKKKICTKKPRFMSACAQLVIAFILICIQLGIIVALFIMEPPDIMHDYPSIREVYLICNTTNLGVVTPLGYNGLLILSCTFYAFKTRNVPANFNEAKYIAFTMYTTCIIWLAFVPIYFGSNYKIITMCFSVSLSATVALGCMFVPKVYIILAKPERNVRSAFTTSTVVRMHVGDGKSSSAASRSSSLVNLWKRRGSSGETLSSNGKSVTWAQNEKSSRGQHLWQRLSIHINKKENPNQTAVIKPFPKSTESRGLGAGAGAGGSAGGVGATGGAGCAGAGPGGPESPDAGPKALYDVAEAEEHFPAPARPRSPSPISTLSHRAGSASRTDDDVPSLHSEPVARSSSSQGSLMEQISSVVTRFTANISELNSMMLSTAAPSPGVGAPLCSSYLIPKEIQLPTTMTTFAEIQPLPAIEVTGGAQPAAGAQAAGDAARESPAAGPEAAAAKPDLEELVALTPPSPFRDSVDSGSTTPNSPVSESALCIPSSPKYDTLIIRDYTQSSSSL

Regarding `CC(C)(C)[C@H](N)C(=O)N1CCc2nc(COc3ccccc3)oc2C1` [Example B54], the Emax (commonly the size of the effect at its maximum, as opposed to the concentration needed) came to 24% and the EC50 (as a rule, the midpoint of the concentration-response curve) was 4170 nM. Take `CC(C)(C)OCC(=O)N1CCc2nc(COc3ccccc3)oc2C1` [Example B55]: the maximal effect (Emax) is 14%. Take `O=C(c1cn[nH]c1)N1CCc2nc(COc3ccccc3)oc2C1` [Example B56]: the “Emax (%)” value is given as 50% and the negative logarithm of the EC50 (pEC50) (usually −log10 of the EC50, conventionally taken in molar units) is on record as <5. For `O=C(c1ccc(Cl)o1)N1CCc2nc(COc3ccccc3)oc2C1` [Example B57], in that order: 57% and 7.14. Regarding `O=C(c1ccc[nH]1)N1CCc2nc(COc3ccccc3)oc2C1` [Example B58], the maximal response (Emax) is 31% and the concentration for a half-maximal effect (EC50) is 603 nM.

As to `O=C(c1cnco1)N1CCc2nc(COc3ccccc3)oc2C1` [Example B59], the Emax came to 40.5% and the concentration giving a half-maximal response (EC50) was 2950 nM. The corresponding values for `O=C(c1ncco1)N1CCc2nc(COc3ccccc3)oc2C1` [Example B60] are 39.5% and 2000 nM. The corresponding values for `Cc1ccc(C(=O)N2CCc3nc(COc4ccccc4)oc3C2)o1` [Example B61] are 52.5% and 302 nM. On to `CC(C)(C#N)C(=O)N1CCc2nc(COc3ccccc3)oc2C1` [Example B62], for which the maximal effect (Emax) is 34% and the EC50 is 339 nM.

Consider `O=C(CCc1ccccc1)N1CCc2nc(COc3ccccc3)oc2C1` [Example B64], for which the maximal effect (Emax) came to 59% and the EC50 is 813 nM. The corresponding values for `Cc1cccc(OCc2nc3c(o2)CN(C(=O)c2ccc(F)cc2)CC3)c1` [Example B66] are 63% and 1200 nM. With `O=C(c1ccc(F)cc1)N1CCc2nc(COc3ccccn3)oc2C1` [Example B68], the Emax is 71% and the half-maximal effective concentration (EC50) was 2400 nM.

`O=C(c1ccc(F)cc1)N1CCc2nc(COc3cccc(Cl)c3)oc2C1` [Example B69]: the “Emax (%)” value is listed as 72% and the pEC50 was 5.85. The corresponding values for `O=C(c1ccc(F)cc1)N1CCc2nc(COc3ccncc3)oc2C1` [Example B73] are 73% and 5.78.

As to `O=C(c1ncccc1Cl)N1CCc2nc(COc3ccccc3)oc2C1` [Example B74], the Emax was 57% and the EC50 was > 10000 nM. Turning to `O=C(N1CCc2nc(COc3ccccc3)oc2C1)C1(c2ccccc2)CC1` [Example B77], the “Emax (%)” value worked out at 62% and the pEC50 is given as 6.00. As for `O=C(COc1ccccc1)N1CCc2nc(COc3ccccc3)oc2C1` [Example B80], the maximum response (Emax) amounted to 60% and the concentration for a half-maximal effect (EC50) was 1910 nM. For `CC(Oc1ccccc1)C(=O)N1CCc2nc(COc3ccccc3)oc2C1` (centres unmarked) [Example B81], in that order: 63% and 1910 nM.

For the molecule `O=C(C1CCc2cc(F)ccc2O1)N1CCc2nc(COc3ccccc3)oc2C1` (centres unmarked) [Example B82], the “Emax (%)” value came to 62% and the pEC50 is recorded as 5.7. For `N#Cc1cc(C(=O)N2CCc3nc(COc4ccccc4)oc3C2)ccn1` [Example B87], in that order: 72% and 5.89. The corresponding values for `N#Cc1ccc(C(=O)N2CCc3nc(COc4ccccc4)oc3C2)cc1F` [Example B90] are 58% and 5.66. The corresponding values for `O=C(c1ccc2nccnc2c1)N1CCc2nc(COc3ccccc3)oc2C1` [Example B91] are 59% and 5.63.

Regarding `N#Cc1cc(F)cc(C(=O)N2CCc3nc(COc4cccc(F)c4)oc3C2)c1` [Example B92], the “Emax (%)” value was found to be 52% and the pEC50 is on record as 6.73.

For the molecule `O=C(c1cnc2ccccc2n1)N1CCc2nc(COc3ccccc3)oc2C1` [Example B93], the “Emax (%)” value was 52% and the pEC50 was 5.73. Turning to `O=C(c1cccc(F)c1)N1CCc2nc(COc3ccc(F)cc3)oc2C1` [Example B100], the Emax is 60.5% and the 50% effective concentration (EC50) was 245 nM.

In the case of `COc1ccc(C(=O)N2CCc3nc(COc4ccccc4)oc3C2)s1` [Example B102], the “Emax (%)” value came to 66% and the negative-log EC50 (pEC50) worked out at 6.34. The corresponding values for `Cc1ccc(C(=O)N2CCc3nc(COc4ccccc4)oc3C2)n1C` [Example B103] are 78% and 6.44.

As to `COCc1ccc(C(=O)N2CCc3nc(COc4ccccc4)oc3C2)o1` [Example B104], the Emax stood at 62% and the EC50 was > 10000 nM. On to `O=C1CCC(C(=O)N2CCc3nc(COc4ccccc4)oc3C2)N1` (centres unmarked) [Example B105], for which the “Emax (%)” value was found to be 22% and the negative-log EC50 (pEC50) is <4.52. As for `O=C(c1ccc(Br)o1)N1CCc2nc(COc3ccccc3)oc2C1` [Example B106], the maximal response (Emax) was determined as 61% and the EC50 is 85.1 nM. For `O=C(c1ccc(Cl)s1)N1CCc2nc(COc3ccccc3)oc2C1` [Example B109], in that order: 73.5% and 66.1 nM. Regarding `Cc1ccc(C(=O)N2CCc3nc(COc4ccccc4)oc3C2)s1` [Example B110], the “Emax (%)” value is 57% and the pEC50 was determined as 6.70.

As to `O=C(c1cc2ccccc2[nH]1)N1CCc2nc(COc3ccccc3)oc2C1` [Example B112], the “Emax (%)” value is given as 12% and the pEC50 is <4.52. In the case of `Cn1ccc(Cl)c1C(=O)N1CCc2nc(COc3ccccc3)oc2C1` [Example B113], the “Emax (%)” value came to 45% and the pEC50 came out at 6.58. The corresponding values for `O=C(c1cc[nH]n1)N1CCc2nc(COc3ccccc3)oc2C1` [Example B115] are 46% and <5. In the case of `O=C(CC(F)(F)F)N1CCc2nc(COc3ccccc3)oc2C1` [Example B116], the Emax came out at 33% and the EC50 was > 10000 nM. With `O=C(c1c[nH]c2ccccc12)N1CCc2nc(COc3ccccc3)oc2C1` [Example B117], the “Emax (%)” value amounted to 69% and the negative logarithm of the EC50 (pEC50) amounted to 6.60. On to `O=C(c1cnc(C(F)(F)F)nc1)N1CCc2nc(COc3ccccc3)oc2C1` [Example B118], for which the “Emax (%)” value is on record as 37% and the negative-log EC50 (pEC50) is given as <5. For `Cc1noc(C(=O)N2CCc3nc(COc4ccccc4)oc3C2)n1` [Example B119], the Emax stood at 22% and the EC50 was > 10000 nM. For `O=C(c1cc2ccccc2o1)N1CCc2nc(COc3ccccc3)oc2C1` [Example B120], in that order: 67% and > 10000 nM. Turning to `Cc1ccoc1C(=O)N1CCc2nc(COc3ccccc3)oc2C1` [Example B121], the “Emax (%)” value worked out at 51% and the pEC50 was found to be 6.72. The corresponding values for `O=C(c1ccc(C(F)(F)F)o1)N1CCc2nc(COc3ccccc3)oc2C1` [Example B122] are 68% and 6.67. For `O=C(c1cnn[nH]1)N1CCc2nc(COc3ccccc3)oc2C1` [Example B125], in that order: 45% and <5.

Turning to `O=C(c1n[nH]c2ccccc12)N1CCc2nc(COc3ccccc3)oc2C1` [Example B126], the Emax was determined as 72% and the concentration for a half-maximal effect (EC50) was 389 nM.

Take `O=C(c1ccc(F)cc1)N1CCc2nc(COc3ccc(C(F)(F)F)cc3)oc2C1` [Example B128]: the “Emax (%)” value is on record as 25% and the pEC50 was <4.52.
